In article PMC9038204, “SNX27–Retromer directly binds ESCPE-1 to transfer cargo proteins during endosomal recycling” (PLoS Biology, 2022):
Blank lines part the entries; values can stand above or below the substance they belong to. Where no end group is shown, it is not given here.

What was measured:
[1] = system: HeLa cells, surface GLUT1; assay: Surface biotinylation, cell surface level of GLUT1; format: cell-based
Method: (§1) For western blotting, cells were lysed in PBS with 1% (v/v) Triton X-100 and protease inhibitor cocktail. The protein concentration was determined with a BCA assay kit (Thermo Fisher Scientific, USA), and equal amounts were resolved on NuPAGE 4% to 12% precast gels (Invitrogen, USA). Blotting was performed onto polyvinylidene fluoride membranes (Immobilon-FL; EMD Millipore, USA) followed by detection using the Odyssey infrared scanning system (LI-COR Biosciences, USA). For GFP-based immunoprecipitations, HEK-293T cells were lysed 48 hours after transfection in immunoprecipitation buffer (50 mM Tris-HCl, 0.5% (v/v) NP-40, and Roche protease inhibitor cocktail) and subjected to GFP trap (ChromoTek, Germany). Immunoblotting was performed using standard procedures. Detection was performed on an Odyssey infrared scanning system (LI-COR Biosciences) using fluorescently labeled secondary antibodies. In using the Odyssey, we routinely performed western blot analysis where a single blot is simultaneously probed with antibodies against 2 proteins of interest (distinct antibody species) followed by visualization with the corresponding secondary antibodies conjugated to distinct spectral dyes.
(§2) For surface biotinylation experiments, fresh Sulfo-NHS-SS Biotin (Thermo Fisher Scientific, #21217) was dissolved in ice-cold PBS at pH 7.8 at a final concentration of 0.2 mg/ml. Cells were washed twice in ice-cold PBS and placed on ice to slow down the endocytic pathway. Next, cells were incubated with the biotinylation reagent for 30 minutes at 4°C followed by incubation in TBS for 10 minutes to quench the unbound biotin. The cells were then lysed in lysis buffer and subjected to Streptavidin beads-based affinity isolation (GE Healthcare, USA).

[2] = system: HeLa cells, surface ITGA5; assay: Surface biotinylation, cell surface level of ITGA5; format: cell-based
Method: as §1, §2

[3] = molecular target: T1, hSNX27FL R498D (Homo sapiens, UniProt Q96L92, R498D); assay: ITC, hSNX1 peptide 75-92 against hSNX27FL R498D; format: binding; conditions: 25°C, 600 μM SNX1_75-92 into 20 μM hSNX27FL R498D
T1 construct: FL, full-length; ITC, isothermal titration calorimetry; His-tag followed by a TEV cleavage site (N); made in house; host or cells: E. coli BL21 (DE3)
Description: (§3) For bacterial expression, full-length mouse SNX1 with an amino-terminal His-tag (mSNX1FL hereafter) was cloned into the pMW172Kan vector [75], and the truncated mSNX1 construct containing residues 1 to 139 was cloned into pGEX4T-2 vector for expression as a thrombin-cleavable amino-terminal GST fusion protein. DNA encoding full-length mouse SNX27 (mSNX27FL hereafter) was inserted into the pMCSG7 vector [76] by the ligation-independent cloning (LIC) approach. Human SNX27 constructs, hSNX27FL, hSNX27FERM, and hSNX27FL single-site mutants R437D, K495D, K496D, R498D, and K501D were cloned into the pET-28a vector by GenScript and codon optimized for bacterial protein expression. An additional TEV cleavage site was inserted between the amino-terminal His-tag and hSNX27 coding sequences.
(§4) All microcalorimetry experiments were conducted at 25°C using a PEAQ ITC (Malvern, UK) in 50 mM HEPES (pH 7.5), 200 mM NaCl, 5% glycerol, and 1 mM β-ME (ITC buffer). […]
(§5) The ITC experiments were conducted with 1 injection of 0.4 μL followed by a series of 12 injections of 3.2 μL each with 180-second intervals and a stirring speed of 850 rpm. […] Data were analyzed with Malvern software package by fitting and normalized data to a single-site binding model, yielding the thermodynamic parameters Kd, ΔH, ΔG, and −TΔS for all binding experiments. […]

[4] = molecular target: T2, hSNX27FL K501D (Homo sapiens, UniProt Q96L92, K501D); assay: ITC, hSNX1 peptide 75-92 against hSNX27FL K501D; format: binding; conditions: 25°C, 600 μM SNX1_75-92 into 20 μM hSNX27FL K501D
T2 construct: FL, full-length; ITC, isothermal titration calorimetry; His-tag followed by a TEV cleavage site (N); made in house; host or cells: E. coli BL21 (DE3)
Description: as §3, §4, §5

[5] = molecular target: T3, hSNX27FL K495D (Homo sapiens, UniProt Q96L92, K495D); assay: ITC, hSNX1 peptide 75-92 against hSNX27FL K495D; format: binding; conditions: 25°C, 600 μM SNX1_75-92 into 20 μM hSNX27FL K495D
T3 construct: FL, full-length; ITC, isothermal titration calorimetry; His-tag followed by a TEV cleavage site (N); made in house; host or cells: E. coli BL21 (DE3)
Description: as §3, §4, §5

[6] = molecular target: T4, mSNX27FL preincubated with competing peptide (Mus musculus, UniProt Q3UHD6); assay: Competitive ITC of hSNX2 16-33 and hSNX1 75-92 with mSNX27FL; format: binding; conditions: 25°C
T4 construct: DNA encoding full-length mouse SNX27 (mSNX27FL hereafter) was inserted into the pMCSG7 vector; made in house; host or cells: Escherichia coli BL21 CodonPlus (DE3)
Method: All microcalorimetry experiments were conducted at 25°C using a PEAQ ITC (Malvern, UK) in 50 mM HEPES (pH 7.5), 200 mM NaCl, 5% glycerol, and 1 mM β-ME (ITC buffer). All proteins were purified by SEC using the same buffer prior to ITC experiments to avoid buffer mismatches. To measure binding of SNX27 to SNX1 proteins, 800 μM of hSNX27FERM was titrated into 20 μM of GST-mSNX1_1-139 or His-SNX1FL. For the binding of SNX1 and SNX2 peptides to SNX27, peptides were diluted 10-fold to 800 μM in ITC buffer peptides and titrated into 20 μM SNX27FL proteins containing the same 1:10 ratio of peptide buffer (100 mM Tris-HCl, pH 10.6). […] For ITC experiment using SNX1_75-92 against hSNX27 wild-type and single-site mutants, 600 μM SNX1_75-92 peptide was titrated into 20 μM hSNX27 proteins.
The ITC experiments were conducted with 1 injection of 0.4 μL followed by a series of 12 injections of 3.2 μL each with 180-second intervals and a stirring speed of 850 rpm. The heat exchange of interactions was obtained through integrating the observed peaks and background correction by subtracting the heats of dilution. Data were analyzed with Malvern software package by fitting and normalized data to a single-site binding model, yielding the thermodynamic parameters Kd, ΔH, ΔG, and −TΔS for all binding experiments. […]

[7] = relative to HeLa = 100, mean of n = 3, Fig. 6D
[8] = relative to HeLa = 100, replicate n1, Fig. 6D
[9] = relative to HeLa = 100, replicate n2, Fig. 6D
[10] = relative to HeLa = 100, replicate n3, Fig. 6D

Substance: +GFP-SNX1
cell surface GLUT1, Mean 2 [1, 7]: 89.92
cell surface GLUT1 [1, 8]: 81.0353
cell surface GLUT1 [1, 9]: 95.6847
cell surface GLUT1 [1, 10]: 93.0328
cell surface ITGa5, Mean 2 [2, 7]: 94.91
cell surface ITGa5 [2, 8]: 92.6175
cell surface ITGa5 [2, 9]: 101.027
cell surface ITGa5 [2, 10]: 91.0806

Kd [3]: no detectable binding
Kd ([3]; listed as hSNX175-92): No binding detected
Kd [4]: no detectable binding
Kd ([4]; listed as hSNX175-92): No binding detected
Kd [5]: no detectable binding
Kd ([5]; listed as hSNX175-92): No binding detected
Substance: NGIHEEQDQEPQDLFADA [SNX1_75-92]

Kd ([6]; hSNX2 16-33 titrated into mSNX27FL preincubated with 2-fold molar excess hSNX1 75-92): binding is blocked
Kd ([6]; hSNX2 16-33 titrated into mSNX27FL preincubated with 2-fold molar excess hSNX1 75-92, listed as hSNX216-33): No binding detected
Substance: TDFEDLEDGEDLFTSTVS [SNX2_16-33]
